pKi: −log10 of the molar value. Values joined by “and” are separate entries in the source; they are usually repeats but may differ in a detail not shown here. Equal entries are not always repeated. Peptide text beside a SMILES is read from it.
What was measured:
[1] = biological target: Neuropeptide FF receptor 2 (Homo sapiens, UniProt Q9Y5X5)
[2] = biological target: T1, Prolactin-releasing peptide receptor (Homo sapiens, UniProt P49683)
T1 sequence (P49683 whole entry): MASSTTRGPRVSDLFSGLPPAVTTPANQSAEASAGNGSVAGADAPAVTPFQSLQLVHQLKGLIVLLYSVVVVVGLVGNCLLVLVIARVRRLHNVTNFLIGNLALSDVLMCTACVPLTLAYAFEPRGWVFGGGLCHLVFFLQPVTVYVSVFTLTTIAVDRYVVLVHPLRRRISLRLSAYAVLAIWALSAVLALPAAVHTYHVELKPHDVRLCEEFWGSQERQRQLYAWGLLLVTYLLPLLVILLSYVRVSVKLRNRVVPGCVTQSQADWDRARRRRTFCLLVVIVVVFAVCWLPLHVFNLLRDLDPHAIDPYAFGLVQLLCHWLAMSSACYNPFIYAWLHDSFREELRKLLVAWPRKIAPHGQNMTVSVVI

Neuropeptide FF receptor 2, sequence (Q9Y5X5 whole entry): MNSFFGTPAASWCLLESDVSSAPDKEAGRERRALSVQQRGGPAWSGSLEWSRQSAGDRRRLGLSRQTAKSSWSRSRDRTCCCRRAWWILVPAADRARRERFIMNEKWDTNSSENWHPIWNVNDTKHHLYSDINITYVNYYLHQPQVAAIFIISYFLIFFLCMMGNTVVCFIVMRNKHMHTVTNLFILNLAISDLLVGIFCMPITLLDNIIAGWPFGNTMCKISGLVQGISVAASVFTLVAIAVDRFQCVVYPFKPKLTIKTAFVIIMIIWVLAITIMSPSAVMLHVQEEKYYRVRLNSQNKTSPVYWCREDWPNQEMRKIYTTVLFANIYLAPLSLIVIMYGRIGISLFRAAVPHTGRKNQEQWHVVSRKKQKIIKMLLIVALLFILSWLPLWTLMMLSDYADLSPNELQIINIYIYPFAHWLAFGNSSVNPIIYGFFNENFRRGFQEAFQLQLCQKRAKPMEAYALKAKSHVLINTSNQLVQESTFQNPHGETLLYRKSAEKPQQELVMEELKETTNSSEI

Row | SMILES | pKi [1] | pKi | pKi [2]
1 | CC(C)C[C@H](NC(=O)[C@H](N)Cc1ccc(O)cc1)C(=O)N(C)[C@@H](Cc1ccccc1)C(=O)N[C@@H](CCC(N)=O)C(=O)N1CCC[C@H]1C(=O)N[C@@H](CCC(N)=O)C(=O)N[C@@H](CCCN=C(N)N)C(=O)N[C@@H](Cc1ccccc1)C(N)=O [CAS_132709] (HELM PEPTIDE1{[dY].L.[meF].Q.P.Q.R.F.[am]}$$$$V2.0) | 8.28 |  | 
2 | CC[C@H](C)[C@H](NC(=O)CNC(=O)[C@H](CCCNC(=N)N)NC(=O)CNC(=O)[C@@H](NC(=O)[C@H](Cc1ccc(O)cc1)NC(=O)[C@H](Cc1c[nH]c2ccccc12)NC(=O)[C@H](C)NC(=O)[C@@H]1CCCN1C(=O)[C@H](CC(N)=O)NC(=O)[C@@H](NC(=O)[C@H](CC(=O)O)NC(=O)[C@@H]1CCCN1C(=O)[C@@H](N)[C@@H](C)O)[C@@H](C)CC)[C@@H](C)O)C(=O)N[C@@H](CCCNC(=N)N)C(=O)N1CCC[C@H]1C(=O)N[C@H](C(=O)NCC(=O)N[C@@H](CCCNC(=N)N)C(=O)N[C@@H](Cc1ccccc1)C(N)=O)C(C)C [CAS_222988-10-5] (H-TPDINPAWYTGRGIRPVGRF-NH2) | 7.64 | 8.64 | 9.00
3 | CC(C)C[C@H](NC(=O)[C@@H](N)Cc1ccccc1)C(=O)N[C@@H](Cc1ccccc1)C(=O)N[C@@H](CCC(N)=O)C(=O)N1CCC[C@H]1C(=O)N[C@@H](CCC(N)=O)C(=O)N[C@@H](CCCN=C(N)N)C(=O)N[C@@H](Cc1ccccc1)C(N)=O [CAS_235433-36-0] |  | 8.28 and 8.23 | 
4 | CC(C)C[C@H](NC(=O)[C@@H](N)Cc1ccccc1)C(=O)N[C@@H](Cc1ccccc1)C(=O)N[C@@H](CCC(N)=O)C(=O)N1CCC[C@H]1C(=O)N[C@@H](CCC(N)=O)C(=O)N[C@@H](CCCN=C(N)N)C(=O)N[C@@H](Cc1ccccc1)C(=O)O [NSC_0] |  | 5.62 | 
5 | CC[C@H](C)[C@H](NC(=O)CN)C(=O)N[C@@H](CCCN=C(N)N)C(=O)N1CCC[C@H]1C(=O)N[C@H](C(=O)NCC(=O)N[C@@H](CCCN=C(N)N)C(=O)N[C@@H](Cc1ccccc1)C(N)=O)C(C)C [NSC_0] (H-GIRPVGRF-NH2) | 7.49 |  | 7.33
6 | N=C(N)NCCCC(NC(=O)C(c1ccccc1)c1ccccc1)C(=O)NCc1ccc(O)cc1 (configuration not stated) [NSC_5311023] | 6.19 | 6.41 | < 5.00
7 | CSCC[C@H](N)C(=O)N1CCC[C@H]1C(=O)N[C@@H](Cc1cnc[nH]1)C(=O)N[C@@H](CO)C(=O)N[C@@H](Cc1ccccc1)C(=O)N[C@@H](C)C(=O)N[C@@H](CC(N)=O)C(=O)N[C@@H](CC(C)C)C(=O)N1CCC[C@H]1C(=O)N[C@@H](CC(C)C)C(=O)N[C@@H](CCCNC(=N)N)C(=O)N[C@@H](Cc1ccccc1)C(N)=O [RFamide-related peptide 1] (H-MPHSFANLPLRF-NH2) | 7.82 | 7.82 | < 5.00
8 | CC(C)C[C@H](NC(=O)[C@H](CC(N)=O)NC(=O)[C@@H]1CCCN1C(=O)[C@@H](N)C(C)C)C(=O)N1CCC[C@H]1C(=O)N[C@@H](CCC(N)=O)C(=O)N[C@@H](CCCNC(=N)N)C(=O)N[C@@H](Cc1ccccc1)C(N)=O [RFamide-related peptide 3] | 7.26 | 7.72 | < 5.00
